Paper PMC4680881 (Scientific Reports, 2015)
“And” between values parts separate entries of the source, which are not always exact repeats. Equal values may be shown once. Read-outs that look alike come from different tables or passages of the source.

Columns and labels:
[1] = molecular target: T1, rMoPrP aggregates (Mus musculus, UniProt P04925); experiment: biochemical; assay type: binding
[2] = molecular target: T2, PrP^Sc deposits (Mus musculus, UniProt P04925); conditions: 100 μM compound; for Fluorescence staining: brain sections from mock-infected mice; for Fluorescence staining of PrP^Sc deposits: brain slices from mBSE-infected mice
T2 sequence (P04925 23-230 limits assumed): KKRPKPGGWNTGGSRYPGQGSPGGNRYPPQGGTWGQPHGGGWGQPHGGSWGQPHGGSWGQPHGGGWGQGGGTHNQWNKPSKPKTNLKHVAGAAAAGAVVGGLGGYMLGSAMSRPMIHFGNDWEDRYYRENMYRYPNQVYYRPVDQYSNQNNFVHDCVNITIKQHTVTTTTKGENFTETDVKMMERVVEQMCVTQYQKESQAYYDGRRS

[3] = molecular target: T1, rMoPrP aggregates; experiment: biochemical; assay type: binding; remark: listed apart in the source
[4] = mouse, in vivo; cited from earlier work
[5] = test system: Aβ aggregates; conditions: cited from earlier work
[6] = test system: amyloid plaques; conditions: cited from earlier work
[7] = test system: Aβ (1–42) fibrils; conditions: cited from earlier work
[8] = molecular target: T2, PrP^Sc deposits; assay type: in vivo
[9] = molecular target: T2, PrP^Sc deposits; assay type: in vivo; remark: listed apart in the source
[10] = molecular target: T2, PrP^Sc deposits

T1 sequence (P04925 23-231 limits assumed): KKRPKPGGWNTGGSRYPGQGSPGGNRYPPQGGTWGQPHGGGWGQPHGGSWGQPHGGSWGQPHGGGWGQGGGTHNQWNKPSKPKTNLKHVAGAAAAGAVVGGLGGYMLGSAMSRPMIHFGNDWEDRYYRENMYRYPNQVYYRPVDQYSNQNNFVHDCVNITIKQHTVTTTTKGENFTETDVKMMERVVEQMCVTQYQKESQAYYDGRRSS

COc1ccc(/C=C/c2cc(=O)c3cc(I)ccc3o2)cc1OC [SC-(OMe)2, (E)-6-Iodo-2-(3,4-dimethoxystyryl) chromone]
Ki [1]: 26.6 ± 1.48 nM
Fluorescence staining [2]: no significant signals
Fluorescence staining of PrP^Sc deposits [2]: clear fluorescence images

CN(C)c1ccc(/C=C/c2cc(=O)c3cc([125I])ccc3o2)cc1 [[^125I]SC-NMe2]
fold higher binding affinity compared with [125I]AR-NMe2 [3]: 3.5 fold
Kd [3]: 24.5 nM and 36.7 nM

CN(C)c1ccc(/C=C/C(=O)c2ccc([125I])cc2)cc1 [[^125I]CL-NMe2]
Bmax [3]: 16.7 pmol/nmol protein
Kd [3]: 246 nM and 224 nM

CN(C)c1ccc(/C=C/c2cc(=O)c3cc(I)ccc3o2)cc1 [SC-NMe2, (E)-6-Iodo-2-(4-(dimethylamino)styryl)-chromone]
Bmax [3]: 36.3 pmol/nmol protein
Kd [3]: 24.5 nM
Brain uptake and washout [4]: low brain uptake and slow washout
Fluorescence staining [2]: Only background signals
Fluorescence staining of PrP^Sc deposits [2]: clearly labelled PrP^Sc deposits
Binding affinity for Aβ aggregates [5]: high binding affinities
Staining of amyloid plaques [6]: clearly stained amyloid plaques

[125I]c1ccc2nc(-c3ccc(-c4ccn[nH]4)cc3)cn2c1 [^125I-DRM106]
Bmax [7]: 34.3 pmol/nmol

O=c1cc(/C=C/c2ccc(OCCO)cc2)oc2ccc(I)cc12 [SC-OEtOH, (E)-6-Iodo-2-(4-hydroxyethoxystyryl)-chromone]
Ki [1]: 221 ± 46.7 nM

COc1ccc(/C=C/c2cc(=O)c3cc(I)ccc3o2)cc1 [SC-OMe, (E)-6-Iodo-2-(4-methoxystyryl) chromone]
Ki [1]: 20.8 ± 0.69 nM
Fluorescence staining [2]: no significant signals
Fluorescence staining of PrP^Sc deposits [2]: clear fluorescence images

Ic1ccc2nc(-c3ccc(-c4ccn[nH]4)cc3)cn2c1 [^125I-DRM106]
Kd [7]: 10.1 nM

COc1ccc(/C=C/c2cc(=O)c3cc([123I])ccc3o2)cc1 [[^123I]SC-OMe]
%SUV ([8]; early period (15–48 min), PBS-injected ipsilateral hemisphere of mock-infected mice): 13.4 %SUV
%SUV ([8]; early period (15–48 min), PrP^Sc-positive upper right hemisphere of mBSE-infected mouse): 46.5 %SUV
%SUV ([8]; early period (15–48 min), contralateral site of mBSE-infected mice): 23.3 %SUV
%SUV ([8]; late period (50–85 min), contralateral site of mBSE-infected mice): 3.7 %SUV
%SUV ([8]; late period (50–85 min), ipsilateral site of mock-infected mice): 3.5 %SUV
%SUV ([8]; late period (50–85 min), right hemisphere of mBSE-infected mice): 7.5 %SUV
Ex vivo autoradiography, accumulation in PrP^Sc-positive regions ([9]; mBSE-infected mice): significant [^123I]SC-OMe accumulation
Ex vivo autoradiography, accumulation in contralateral site ([9]; mBSE-infected mice): no significant accumulation
Ex vivo autoradiography, binding in mock-infected mouse brain ([9]; mock-infected mice): low signals

CNc1ccc(C=Cc2cc(=O)c3cc([125I])ccc3o2)cc1 [[^125I]SC-NHMe]
In vitro autoradiography, distribution of radioactivity ([10]; brain sections of mock-infected mice): homogeneous distribution of radioactivity
In vitro autoradiography, signal in PrP^Sc deposit region ([10]; mBSE-infected mice, right corpus callosum region): high level of background and no significant accumulation of prion deposits

CN(C)c1ccc(-c2cc(=O)c3cc(I)ccc3o2)cc1 [FL-NMe2, 6-Iodo-4′-dimethyaminoflavone]
Fluorescence staining [2]: Only background signals
Binding affinity for Aβ aggregates [5]: high binding affinities
Staining of amyloid plaques [6]: clearly stained amyloid plaques

CNc1ccc(/C=C/c2cc(=O)c3cc(I)ccc3o2)cc1 [SC-NHMe, (E)-6-Iodo-2-(4-(methylamino)styryl)-chromone]
Ki [1]: 17 ± 5.41 nM
Fluorescence staining [2]: no significant signals
Fluorescence staining of PrP^Sc deposits [2]: clear fluorescence images

CN(C)c1ccc(/C=C/C(=O)c2ccc(I)cc2)cc1 [CL-NMe2, (E)-3-(4-(Dimethylamino)phenyl)-1-(4-iodophenyl) prop-2-en-1-one]
Fluorescence staining [2]: Only background signals
Binding affinity for Aβ aggregates [5]: high binding affinities
Staining of amyloid plaques [6]: clearly stained amyloid plaques

O=c1cc(/C=C/c2ccc(O)cc2)oc2ccc(I)cc12 [SC-OH, (E)-6-Iodo-2-(4-hydroxylstyryl)-chromone]
Ki [1]: 35 ± 3.72 nM

Nc1ccc(/C=C/c2cc(=O)c3cc(I)ccc3o2)cc1 [SC-NH2, (E)-6-Iodo-2-(4-aminostyryl)-chromone]
Ki [1]: 58.7 ± 5.93 nM
fold lower binding affinity than SC-OMe [1]: 2.8 fold

CN(C)c1ccc(C=C2Oc3ccc(I)cc3C2=O)cc1 [AR-NMe2, 2-[(4-Dimethylaminophenyl)methylene]-5-iodo-3(2H)-benzofuranone]
Fluorescence staining [2]: Only background signals
Binding affinity for Aβ aggregates [5]: high binding affinities
Staining of amyloid plaques [6]: clearly stained amyloid plaques

CN(C)c1ccc(-c2cc(=O)c3cc([125I])ccc3o2)cc1 [[^125I]FL-NMe2]
Bmax [3]: 11.2 pmol/nmol protein
Kd [3]: 201 nM

CN(C)c1ccc(/C=C2\Oc3ccc([125I])cc3C2=O)cc1 [[^125I]AR-NMe2]
Bmax [3]: 34.9 pmol/nmol protein
Kd [3]: 125 nM and 119 nM
